Here are results for 8 molecules from patent publication US20250382279A1, “COMPOUNDS AND METHODS FOR YAP/TEAD MODULATION AND INDICATIONS THEREFOR” (OPNA BIO SA, priority 2023, published 2025).

The subject of the assay is TEAD-dependent transcription. Nature of the assay: Inhibitor activity against TEAD-dependent transcription in a cell-based reporter assay (MSTO-211H+12XGTIIC luciferase). Conditions: Homo sapiens; MSTO-211H+12XGTIIC cell line, 24 hours compound incubation, luminescence normalized to cell viability fluorescence; read-out: MSTO-211H GMean IC50 (uM) Cell Assay Reporter Cell Variant: TEAD. The source says: Determine Inhibitor Activity Against TEAD-Dependent Transcription in a Cell-Based Reporter Assay
The human mesothelioma cell line MSTO-211H was stably transfected with a pGL4.21 plasmid containing a synthetic promoter with 12 copies of the GTIIC TEAD response element that drives the expression of a luciferase reporter gene^1 using Lipofectamine transfection reagent (Thermno Fisher). Transfected cells were selected using puromycin and single cell clones expressing this construct (referred to as MSTO-211H+12XGTIIC) were generated by limiting dilution. MSTO-211H cells was characterized by genetic alterations in key components of the Hippo pathway^2, resulting in up-regulation of YAP/TEAD-mediated transcription. […] To evaluate TEAD inhibitors, the MSTO-211H+12XGTIIC cell line was seeded in a 96-well plate in 50 μL of culture media at 1×10^4 cells per well and incubated at 37° C. overnight. Serial dilutions of compounds (in total volume of 50 μL of culture media) were added to the cells and incubated at 37° C. for 24 hours. Each plate included cells treated with DMSO as high controls and cells treated with 20 μM of the reference compound K-975 (a known TEAD inhibitor)^3 as low controls. Cell viability was assayed by the addition of 25 μL of CellTiter-Fluor reagent (Promega) followed by a 30-minute incubation at 37° C. and quantification of the fluorescence signal (Ex400/Em505). Subsequently, luciferase expression was assayed by the addition of 25 μL of ONE-Glo reagent (Promega) followed by a 10-minute incubation at room temperature and quantification of the luminescence signal. The luminescence signal was normalized to the fluorescence signal to correct for any loss in cell viability over the 24-hour compound incubation period. The percentage of inhibition of normalized luminescence signal, indicative of compound-mediated inhibition of TEAD-dependent transcription, at individual compound concentrations relative to high and low controls was calculated. The data were analyzed by using nonlinear regression to generate IC50 values for individual compounds.
(In a reporter assay the amount or activity of a reporter protein is the signal.)
The term IC50 denotes the concentration at which inhibition is half-maximal. Take `O=C1c2cc(Oc3ccc(C(F)(F)F)cc3)ccc2CCN1c1cccc(-c2cscn2)c1` [O-0039, 2-(3-(thiazol-4-yl)phenyl)-7-(4-(trifluoromethyl)phenoxy)-3,4-dihydroisoquinolin-1(2H)-one]: the IC50 lay within 0.001 to 10 µM.

With `O=C1c2cc(Oc3ccc(C(F)(F)F)cc3)ccc2CCN1c1ccnc(S(=O)(=O)C(F)(F)F)n1` [O-0044, 7-(4-(trifluoromethyl)phenoxy)-2-(2-((trifluoromethyl)sulfonyl)pyrimidin-4-yl)-3,4-dihydroisoquinolin-1(2H)-one], the IC50 lay in the range of 0.001 to 10 µM.

With `O=C1c2cc(Oc3ccc(C(F)(F)F)cc3)ccc2CCN1c1ccc2nc(C(F)(F)F)[nH]c2c1` [O-0045, 2-(2-(trifluoromethyl)-1H-benzo[d]imidazol-6-yl)-7-(4-(trifluoromethyl)phenoxy)-3,4-dihydroisoquinolin-1(2H)-one], the IC50 was 0.001 to 10 µM.

In the case of `O=C1c2cc(Oc3ccc(C(F)(F)F)cc3)ccc2CCN1c1ccc2nc(C(F)(F)F)sc2c1` [O-0046, 2-(2-(trifluoromethyl)benzo[d]thiazol-6-yl)-7-(4-(trifluoromethyl)phenoxy)-3,4-dihydroisoquinolin-1(2H)-one], the IC50 lay within 0.001 to 10 µM.

In the case of `C=CC(=O)Nc1cncc(N2CCc3ccc(Oc4ccc(C(F)(F)F)cc4)cc3C2=O)c1` [O-0108, N-(5-(1-oxo-7-(4-(trifluoromethyl)phenoxy)-3,4-dihydroisoquinolin-2(1H)-yl)pyridin-3-yl)acrylamide], the 50% inhibitory concentration (IC50) is 0.001 to 10 µM.

For `Nc1cncc(N2CCc3ccc(Oc4ccc(C(F)(F)F)cc4)cc3C2=O)c1` [O-0110, 2-(5-aminopyridin-3-yl)-7-(4-(trifluoromethyl)phenoxy)-3,4-dihydroisoquinolin-1(2H)-one], the half-inhibitory concentration (IC50) lay within 0.001 to 10 µM.

`Nc1cccc(N2CCc3ccc(Oc4ccc(C(F)(F)F)cc4)cc3C2=O)n1` [O-0111, 2-(6-aminopyridin-2-yl)-7-(4-(trifluoromethyl)phenoxy)-3,4-dihydroisoquinolin-1(2H)-one]: the IC50 was 0.001 to 10 µM.

Take `O=C1c2cccc(Oc3ccc(C(F)(F)F)cc3)c2CCN1c1ccnc([S+]([O-])C(F)(F)F)n1` (centres unmarked) [O-0112, 5-(4-(trifluoromethyl)phenoxy)-2-(2-((trifluoromethyl)sulfinyl)pyrimidin-4-yl)-3,4-dihydroisoquinolin-1(2H)-one]: the IC50 lay within 0.001 to 10 µM.
